Data from US7977327B2, “Substituted pyrrolidine derivative” (Daiichi Sankyo Company, Limited, priority 2004, dated 2011).
Values after ≈ are worked out from the molar mass of the structure shown. Read-outs that look alike come from different tables or passages of the source.

Legend:
[1] = tested on: E. coli NIHJ; assay: Antibacterial activity (MIC), standard method of the Japan Society of Chemotherapy; format: cell-based; settings: E. coli NIHJ
Method: (§1) The antimicrobial activities of the compounds of the present invention were determined according to a standard method designated by the Japan Society of Chemotherapy. The results are expressed by MIC (μg/mL) (Table 1). In Table 1, S. aureus 870307 and S. pneumonia J24 are quinolone-resistant bacteria.

[2] = tested on: E. faevcalis ATCC 19433; assay: as above; format: cell-based; settings: E. faevcalis ATCC 19433
Method: as §1

[3] = tested on: K. pneumoniae TYPE I; assay: as above; format: cell-based; settings: K. pneumoniae TYPE I
Method: as §1

[4] = tested on: P. Vulgalis 08601; assay: as above; format: cell-based; settings: P. Vulgalis 08601
Method: as §1

[5] = tested on: P. aeruginosa 32104; assay: as above; format: cell-based; settings: P. aeruginosa 32104
Method: as §1

[6] = tested on: P. aeruginosa 32121; assay: as above; format: cell-based; settings: P. aeruginosa 32121
Method: as §1

[7] = tested on: S. aureus 870307; assay: as above; format: cell-based; settings: S. aureus 870307, quinolone-resistant
Method: as §1

[8] = tested on: S. aureus FDA 209P; assay: as above; format: cell-based; settings: S. aureus FDA 209P
Method: as §1

[9] = tested on: S. epidermidis 56500; assay: as above; format: cell-based; settings: S. epidermidis 56500
Method: as §1

[10] = tested on: S. flexneri 2A 5503; assay: as above; format: cell-based
Method: as §1

[11] = tested on: S. maltophilia IID 1275; assay: as above; format: cell-based; settings: S. maltophilia IID 1275
Method: as §1

[12] = tested on: S. marcescens 10100; assay: as above; format: cell-based; settings: S. marcescens 10100
Method: as §1

[13] = tested on: S. pneumoniae J24; assay: as above; format: cell-based; settings: S. pneumoniae J24, quinolone-resistant
Method: as §1

[14] = tested on: S. pyogenes G-36; assay: as above; format: cell-based; settings: S. pyogenes G-36
Method: as §1

[15] = Pseudomonas aeruginosa, read-out: MIC

| SMILES | melting point [°C] | MIC [1] [µg/mL] | MIC [2] [µg/mL] | MIC [3] [µg/mL] | MIC [4] [µg/mL] | MIC [5] [µg/mL] | MIC [6] [µg/mL] | MIC [7] [µg/mL] | MIC [8] [µg/mL] | MIC [9] [µg/mL] | MIC [10] [µg/mL] | MIC [11] [µg/mL] | MIC [12] [µg/mL] | MIC [13] [µg/mL] | MIC [14] [µg/mL] | also measured |
| --- | --- | --- | --- | --- | --- | --- | --- | --- | --- | --- | --- | --- | --- | --- | --- | --- |
| CC[C@H]1CN(c2ccc3c(=O)c(C(=O)O)cn([C@@H]4C[C@@H]4F)c3c2C)C[C@H]1N [Compound No. 14, 7-[(3S,4S)-3-Amino-4-ethylpyrrolidine-1-yl]-1-[(1R,2S)-2-fluorocyclopropyl]-8-methyl-1,4-dihydro-4-oxoquinoline-3-carboxylic acid] | 232 to 234 |  |  |  |  |  |  |  |  |  |  |  |  |  |  |  |
| CC[C@H]1CN(c2c(F)cc3c(=O)c(C(=O)O)cn([C@@H]4C[C@@H]4F)c3c2C)C[C@H]1NC [Compound No. 15, 7-[(3S,4S)-3-Ethyl-4-methylaminopyrrolidin-1-yl]-6-fluoro-1-[(1R,2S)-2-fluorocyclopropyl]-8-methyl-1,4-dihydro-4-oxoquinoline-3-carboxylic acid] | 223 to 225 |  |  |  |  |  |  |  |  |  |  |  |  |  |  |  |
| Cc1c(N2C[C@@H](N)[C@@H](C(C)C)C2)c(F)cc2c(=O)c(C(=O)O)cn([C@@H]3C[C@@H]3F)c12 [Compound No. 16, 7-[(3S,4S)-3-Amino-4-isopropylpyrrolidine-1-yl]-6-fluoro-1-[(1R,2S)-2-fluorocyclopropyl]-8-methyl-1,4-dihydro-4-oxoquinoline-3-carboxylic acid] | 124 to 127 |  |  |  |  |  |  |  |  |  |  |  |  |  |  | MIC ([1]; Escherichia coli, read-out: MIC): 0.006 µg/mL (≈ 0.0148 µM); MIC ([2]; read-out: MIC): 0.1 µg/mL (≈ 0.247 µM); MIC ([3]; Klebsiella pneumoniae, read-out: MIC): 0.025 µg/mL (≈ 0.0617 µM); MIC ([4]; read-out: MIC): 0.025 µg/mL (≈ 0.0617 µM); MIC [5, 15]: 0.2 µg/mL (≈ 0.493 µM); MIC [6, 15]: 0.1 µg/mL (≈ 0.247 µM); MIC ([7]; Staphylococcus aureus, read-out: MIC): 0.1 µg/mL (≈ 0.247 µM); MIC ([8]; Staphylococcus aureus, FDA209P, read-out: MIC): 0.006 µg/mL (≈ 0.0148 µM); MIC ([9]; Staphylococcus epidermidis, read-out: MIC): 0.025 µg/mL (≈ 0.0617 µM); MIC ([10]; Shigella flexneri, 2A5503, read-out: MIC): 0.006 µg/mL (≈ 0.0148 µM); MIC ([11]; Stenotrophomonas maltophilia, IID1275, read-out: MIC): 0.05 µg/mL (≈ 0.123 µM); MIC ([12]; Serratia marcescens, read-out: MIC): 0.05 µg/mL (≈ 0.123 µM); MIC ([13]; Streptococcus pneumoniae, read-out: MIC): 0.05 µg/mL (≈ 0.123 µM); MIC ([14]; Streptococcus pyogenes, G36, read-out: MIC): 0.025 µg/mL (≈ 0.0617 µM) |
| CN[C@@H]1CN(c2c(F)cc3c(=O)c(C(=O)O)cn([C@@H]4C[C@@H]4F)c3c2C)C[C@@H]1C(C)C [Compound No. 17, 6-Fluoro-1-[(1R,2S)-2-fluorocyclopropyl]-7-[(3S,4S)-3-isopropyl-4-methylaminopyrrolidin-1-yl]-8-methyl-1,4-dihydro-4-oxoquinoline-3-carboxylic acid] | 168 to 171 |  |  |  |  |  |  |  |  |  |  |  |  |  |  |  |
| C[C@H]1COc2c(N3CCN(C)CC3)c(F)cc3c(=O)c(C(=O)O)cn1c23 [LVFX, reference compound] |  | 0.012 (≈ 0.0332 µM) | 0.78 (≈ 2.16 µM) | 0.1 (≈ 0.277 µM) | 0.012 (≈ 0.0332 µM) | 0.2 (≈ 0.553 µM) | 0.1 (≈ 0.277 µM) | >6.25 | 0.2 (≈ 0.553 µM) | 0.39 (≈ 1.08 µM) | 0.025 (≈ 0.0692 µM) | 0.39 (≈ 1.08 µM) | 0.1 (≈ 0.277 µM) | 0.78 (≈ 2.16 µM) | 0.78 (≈ 2.16 µM) |  |
| COc1c(N2C[C@@H]3CCCN[C@@H]3C2)c(F)cc2c(=O)c(C(=O)O)cn(C3CC3)c12 [MFLX, reference compound] |  | 0.006 (≈ 0.0149 µM) | 0.2 (≈ 0.498 µM) | 0.05 (≈ 0.125 µM) | 0.025 (≈ 0.0623 µM) | 0.39 (≈ 0.972 µM) | 0.2 (≈ 0.498 µM) | 0.78 (≈ 1.94 µM) | 0.025 (≈ 0.0623 µM) | 0.1 (≈ 0.249 µM) | 0.012 (≈ 0.0299 µM) | 0.1 (≈ 0.249 µM) | 0.1 (≈ 0.249 µM) | 0.025 (≈ 0.0623 µM) | 0.2 (≈ 0.498 µM) |  |
